# System: Transport facilitation protein genes
# Assay: DNA chip mRNA expression in yeast, transport facilitation protein genes (Table 5)
# Format: cell-based, Saccharomyces cerevisiae S288C
# Description: Yeast (Saccharomyces cerevisiae S288C (α SUC2mal mel gap2 CUP1)) were incubated at 25° C. on YPD medium (yeast extract 1%, polypepton 2%, glucose 2%). One of toxic chemical substances was added to the cells at logarithmic growth phase, and the cells were further incubated for two hours. Cells were cultured without any chemical substance in the same condition, and were used as control. Concentrations of the chemical substances were defined to inhibit the growth of the yeast but not lead to death.
# After completion of the incubation, the culture was centrifuged to collect the cells. To the cells, sodium acetate buffer (50 mM sodium acetate, 10 mM EDTA, 1% SDS) was added, and the mixture was shaken at 65° C. for five minutes, followed by returning to room temperature, and obtaining the supernatant, of which the procedures were repeated two times. To the supernatant, ½ amount of a solution of phenol/chloroform was added, and the mixture was centrifuged to give a supernatant, which was added with an equal amount of chloroform, and the mixture was centrifuged to give a supernatant. To the supernatant, an equal amount of isopropanol containing 0.3 M sodium acetate was added, and the mixture was allowed to stand at room temperature for 30 minutes, after which the mixture was centrifuged to give a sediment of the whole RNAs. Seventy % ethanol was added to the sediment, and the mixture was again centrifuged to give a sediment, which was then dried and dissolved in water. mRNA was isolated from the whole RNAs as followings. In view of the fact that a poly A chain is attached to the 3′ terminus of mRNA, a polynucleotide having a poly T structure which was immobilized on the surface of latex beads was used to trap the mRNA, and then the mRNA was washed and eluted with spine column (Oligotex-dT30<Super>mRNA Purification Kit, Takara). Reverse transcription of the mRNA was conducted with a reverse transcriptase (Super Script II Reverse Transcriptase; catalogue No. 18064-014, GibcoBRL) using fluorescence-labeled nucleotides to give cDNAs that were introduced with Cy3-dUTP or Cy5-dUTP during the reverse transcription.
# The labeled cDNAs were dissolved in TE buffer (10mM Tris-HCl/1 mM EDTA, pH8.0), and the solution was dropped on the DNA chip containing the whole genes of yeast (DNA Chip Research Inc. Japan) so that the cDNAs were hybridized on the DNA chip at 65° C. for over 12 hours. The fluoresces intensity of the DNA chip was read with a scanner, and the ratio relative to the fluorescence intensity resulting from the absence of chemical substance was estimated as the following, which is shown in Tables 1 to 9: […]
structure (smiles),measurement,setting,value
"CCCCCCCCCCCCc1ccc(S(=O)(=O)[O-])cc1.[Na+] [(17), sodium dodecylbenzosulfonate]",The level of expressed mRNA in the presence of chemical substance/The level of expressed mRNA in the absence of chemical substance,yeast gene YGR224W,2.8
same,The level of expressed mRNA in the presence of chemical substance/The level of expressed mRNA in the absence of chemical substance,yeast gene YGR260W,0.9
same,The level of expressed mRNA in the presence of chemical substance/The level of expressed mRNA in the absence of chemical substance,yeast gene YGR281W,2.8
same,The level of expressed mRNA in the presence of chemical substance/The level of expressed mRNA in the absence of chemical substance,yeast gene YHL035C,1.1
same,The level of expressed mRNA in the presence of chemical substance/The level of expressed mRNA in the absence of chemical substance,yeast gene YHL040C,1.4
same,The level of expressed mRNA in the presence of chemical substance/The level of expressed mRNA in the absence of chemical substance,yeast gene YHL047C,1.2
same,The level of expressed mRNA in the presence of chemical substance/The level of expressed mRNA in the absence of chemical substance,yeast gene YHR026W,0.9
same,The level of expressed mRNA in the presence of chemical substance/The level of expressed mRNA in the absence of chemical substance,yeast gene YHR092C,0.9
same,The level of expressed mRNA in the presence of chemical substance/The level of expressed mRNA in the absence of chemical substance,yeast gene YHR094C,1.4
same,The level of expressed mRNA in the presence of chemical substance/The level of expressed mRNA in the absence of chemical substance,yeast gene YHR175W,1.3
same,The level of expressed mRNA in the presence of chemical substance/The level of expressed mRNA in the absence of chemical substance,yeast gene YIL006W,0.8
same,The level of expressed mRNA in the presence of chemical substance/The level of expressed mRNA in the absence of chemical substance,yeast gene YIL022W,0.8
same,The level of expressed mRNA in the presence of chemical substance/The level of expressed mRNA in the absence of chemical substance,yeast gene YIL056W,1.5
same,The level of expressed mRNA in the presence of chemical substance/The level of expressed mRNA in the absence of chemical substance,yeast gene YIL088C,1.2
same,The level of expressed mRNA in the presence of chemical substance/The level of expressed mRNA in the absence of chemical substance,yeast gene YJL034W,1.1
same,The level of expressed mRNA in the presence of chemical substance/The level of expressed mRNA in the absence of chemical substance,yeast gene YJL212C,0.6
same,The level of expressed mRNA in the presence of chemical substance/The level of expressed mRNA in the absence of chemical substance,yeast gene YJL219W,1.6
same,The level of expressed mRNA in the presence of chemical substance/The level of expressed mRNA in the absence of chemical substance,yeast gene YJR077C,1.0
same,The level of expressed mRNA in the presence of chemical substance/The level of expressed mRNA in the absence of chemical substance,yeast gene YJR106W,1.2
same,The level of expressed mRNA in the presence of chemical substance/The level of expressed mRNA in the absence of chemical substance,yeast gene YJR121W,1.1
same,The level of expressed mRNA in the presence of chemical substance/The level of expressed mRNA in the absence of chemical substance,yeast gene YKL016C,1.0
same,The level of expressed mRNA in the presence of chemical substance/The level of expressed mRNA in the absence of chemical substance,yeast gene YKL146W,1.0
same,The level of expressed mRNA in the presence of chemical substance/The level of expressed mRNA in the absence of chemical substance,yeast gene YKR039W,0.9
same,The level of expressed mRNA in the presence of chemical substance/The level of expressed mRNA in the absence of chemical substance,yeast gene YKR067W,0.8
same,The level of expressed mRNA in the presence of chemical substance/The level of expressed mRNA in the absence of chemical substance,yeast gene YLL028W,1.2
same,The level of expressed mRNA in the presence of chemical substance/The level of expressed mRNA in the absence of chemical substance,yeast gene YLR081W,0.7
same,The level of expressed mRNA in the presence of chemical substance/The level of expressed mRNA in the absence of chemical substance,yeast gene YLR295C,0.9
same,The level of expressed mRNA in the presence of chemical substance/The level of expressed mRNA in the absence of chemical substance,yeast gene YLR348C,1.1
same,The level of expressed mRNA in the presence of chemical substance/The level of expressed mRNA in the absence of chemical substance,yeast gene YLR378C,0.9
same,The level of expressed mRNA in the presence of chemical substance/The level of expressed mRNA in the absence of chemical substance,yeast gene YMR011W,1.3
same,The level of expressed mRNA in the presence of chemical substance/The level of expressed mRNA in the absence of chemical substance,yeast gene YMR162C,0.8
same,The level of expressed mRNA in the presence of chemical substance/The level of expressed mRNA in the absence of chemical substance,yeast gene YMR203W,0.8
same,The level of expressed mRNA in the presence of chemical substance/The level of expressed mRNA in the absence of chemical substance,yeast gene YNL055C,1.2
same,The level of expressed mRNA in the presence of chemical substance/The level of expressed mRNA in the absence of chemical substance,yeast gene YNL259C,2.6
same,The level of expressed mRNA in the presence of chemical substance/The level of expressed mRNA in the absence of chemical substance,yeast gene YNR072W,1.3
same,The level of expressed mRNA in the presence of chemical substance/The level of expressed mRNA in the absence of chemical substance,yeast gene YOL119C,1.4
same,The level of expressed mRNA in the presence of chemical substance/The level of expressed mRNA in the absence of chemical substance,yeast gene YOL156W,0.9
same,The level of expressed mRNA in the presence of chemical substance/The level of expressed mRNA in the absence of chemical substance,yeast gene YOL163W,0.8
same,The level of expressed mRNA in the presence of chemical substance/The level of expressed mRNA in the absence of chemical substance,yeast gene YOR035C,1.6
same,The level of expressed mRNA in the presence of chemical substance/The level of expressed mRNA in the absence of chemical substance,yeast gene YOR130C,1.5
same,The level of expressed mRNA in the presence of chemical substance/The level of expressed mRNA in the absence of chemical substance,yeast gene YOR153W,2.5
same,The level of expressed mRNA in the presence of chemical substance/The level of expressed mRNA in the absence of chemical substance,yeast gene YOR273C,3.2
same,The level of expressed mRNA in the presence of chemical substance/The level of expressed mRNA in the absence of chemical substance,yeast gene YOR316C,0.8
same,The level of expressed mRNA in the presence of chemical substance/The level of expressed mRNA in the absence of chemical substance,yeast gene YOR332W,1.3
same,The level of expressed mRNA in the presence of chemical substance/The level of expressed mRNA in the absence of chemical substance,yeast gene YOR348C,0.9
same,The level of expressed mRNA in the presence of chemical substance/The level of expressed mRNA in the absence of chemical substance,yeast gene YPL036W,0.4
same,The level of expressed mRNA in the presence of chemical substance/The level of expressed mRNA in the absence of chemical substance,yeast gene YPL134C,1.3
same,The level of expressed mRNA in the presence of chemical substance/The level of expressed mRNA in the absence of chemical substance,yeast gene YPL271W,1.2
same,The level of expressed mRNA in the presence of chemical substance/The level of expressed mRNA in the absence of chemical substance,yeast gene YPR192W,1.6
same,The level of expressed mRNA in the presence of chemical substance/The level of expressed mRNA in the absence of chemical substance,yeast gene YPR194C,1.0

# — patent US8192962B2, “Processes for detecting toxic substances” (Daikin Industries, Ltd., priority 2001, dated 2012)
